Measurements taken from patent publication US9120779B2, “Inhibitors of HCV NS5A” (PRESIDIO PHARMACEUTICALS, INC., priority 2008, dated 2015).
pEC50: −log10 of the molar value.

tested on: HCV genotype 1b replicon in Huh 7 cells; assay: HCV replicon assay (luciferase readout, 1b_Huh-Luc/Neo-ET cell line); assay type: cell-based; settings: Hepatitis C virus, Huh-7, 72 h, read-out: Inhibition of HCV genotype 1b, Table 1, 72 h incubation
Method: Biological activity of the compounds of the invention was determined using an HCV replicon assay. The 1b_Huh-Luc/Neo-ET cell line persistently expressing a bicistronic genotype 1b replicon in Huh 7 cells was obtained from R^eBLikon GMBH. This cell line was used to test compound inhibition using luciferase enzyme activity readout as a measurement of compound inhibition of replicon levels.
On Day 1 (the day after plating), each compound is added in triplicate to the cells. Plates incubated for 72 h prior to running the luciferase assay. Enzyme activity was measured using a Bright-Glo Kit (cat. number E2620) manufactured by Promega Corporation. The following equation was used to generate a percent control value for each compound. % Control=(Average Compound Value/Average Control)*100
The EC50 value was determined using GraphPad Prism and the following equation: Y=Bottom+(Top−Bottom)/(1+10^((Log IC50−X)*HillSlope))
EC50 values of compounds are repeated several times in the replicon assay.
Example compounds of the disclosed invention are illustrated in Tables 1-9 attached as appendices. The tables show inhibitory activity of many of the example compounds with respect to HCV 1b. […] The tables further provide mass spectrometry results for the synthesized example compounds.

SMILES	pEC50
O=C(N[C@@H](C(=O)N1CCC[C@H]1C(=O)N[C@H]1CC[C@H](c2ccc(-c3cnc([C@@H]4CCCN4C(=O)[C@H](NC(=O)C4CC4)c4ccccc4)[nH]3)cc2)CC1)c1ccccc1)C1CC1 [compound 350]	> 9.00
O=C(N[C@@H](C(=O)N1CCC[C@H]1C(=O)N[C@H]1CC[C@@H](c2ccc(-c3cnc([C@@H]4CCCN4C(=O)[C@H](NC(=O)C4CC4)c4ccccc4)[nH]3)cc2)CC1)c1ccccc1)C1CC1 [compound 351]	> 9.00
CC(C)(C)OC(=O)N[C@@H](C(=O)N1CCC[C@H]1c1ncc(-c2ccc(C3CCC(c4cnc([C@@H]5CCCN5C(=O)[C@H](NC(=O)OC(C)(C)C)c5ccccc5)o4)CC3)cc2)[nH]1)c1ccccc1 (stereo partly shown) [compound 352]	8.00 to 9.00
O=C(N[C@@H](C(=O)N1CCC[C@H]1c1ncc(-c2ccc(C3CCC(c4cnc([C@@H]5CCCN5C(=O)[C@H](NC(=O)C5CC5)c5ccccc5)o4)CC3)cc2)[nH]1)c1ccccc1)C1CC1 (stereo partly shown) [compound 353]	> 9.00
O=C(N[C@H]1CC[C@H](c2ccc(-c3cnc([C@@H]4CCCN4C(=O)[C@H](NC(=O)N4CCOCC4)c4ccccc4)[nH]3)cc2)CC1)[C@@H]1CCCN1C(=O)[C@H](NC(=O)N1CCOCC1)c1ccccc1 [compound 354]	8.00 to 9.00
O=C(N[C@H]1CC[C@@H](c2ccc(-c3cnc([C@@H]4CCCN4C(=O)[C@H](NC(=O)N4CCOCC4)c4ccccc4)[nH]3)cc2)CC1)[C@@H]1CCCN1C(=O)[C@H](NC(=O)N1CCOCC1)c1ccccc1 [compound 355]	8.00 to 9.00
CC(C)[C@@H](NC(=O)OC(C)(C)C)C(=O)N1CCC[C@H]1C(=O)N[C@H]1CC[C@H](c2ccc(-c3cnc([C@@H]4CCCN4C(=O)[C@H](NC(=O)OC(C)(C)C)C(C)C)[nH]3)cc2)CC1 [compound 356]	6.00 to 8.00
CC(C)[C@@H](NC(=O)OC(C)(C)C)C(=O)N1CCC[C@H]1C(=O)N[C@H]1CC[C@@H](c2ccc(-c3cnc([C@@H]4CCCN4C(=O)[C@H](NC(=O)OC(C)(C)C)C(C)C)[nH]3)cc2)CC1 [compound 357]	6.00 to 8.00
O=C(N[C@@H](C(=O)N1CCC[C@H]1c1ncc(-c2ccc(C3CCC(c4cnc([C@@H]5CCCN5C(=O)[C@H](NC(=O)N5CCOCC5)c5ccccc5)o4)CC3)cc2)[nH]1)c1ccccc1)N1CCOCC1 (stereo partly shown) [compound 358]	> 9.00
CN1CCN(C(=O)N[C@@H](C(=O)N2CCC[C@H]2c2ncc(-c3ccc(C4CCC(c5cnc([C@@H]6CCCN6C(=O)[C@H](NC(=O)N6CCN(C)CC6)c6ccccc6)o5)CC4)cc3)[nH]2)c2ccccc2)CC1 (stereo partly shown) [compound 359]	8.00 to 9.00
CC(C)[C@@H](NC(=O)N1CCOCC1)C(=O)N1CCC[C@H]1C(=O)N[C@H]1CC[C@H](c2ccc(-c3cnc([C@@H]4CCCN4C(=O)[C@H](NC(=O)N4CCOCC4)C(C)C)[nH]3)cc2)CC1 [compound 360]	6.00 to 8.00
CC(C)[C@@H](NC(=O)N1CCOCC1)C(=O)N1CCC[C@H]1C(=O)N[C@H]1CC[C@@H](c2ccc(-c3cnc([C@@H]4CCCN4C(=O)[C@H](NC(=O)N4CCOCC4)C(C)C)[nH]3)cc2)CC1 [compound 361]	6.00 to 8.00
CC(C)(C)OC(=O)N[C@@H](C(=O)N1CCC[C@H]1C(=O)N[C@H]1CC[C@H](c2cccc(-c3cnc([C@@H]4CCCN4C(=O)[C@H](NC(=O)OC(C)(C)C)c4ccccc4)[nH]3)c2)CC1)c1ccccc1 [compound 362]	8.00 to 9.00
CC(C)(C)OC(=O)N[C@@H](C(=O)N1CCC[C@H]1C(=O)N[C@H]1CC[C@@H](c2cccc(-c3cnc([C@@H]4CCCN4C(=O)[C@H](NC(=O)OC(C)(C)C)c4ccccc4)[nH]3)c2)CC1)c1ccccc1 [compound 363]	> 9.00
O=C(N[C@H]1CC[C@H](c2cccc(-c3cnc([C@@H]4CCCN4C(=O)[C@H](NC(=O)N4CCOCC4)c4ccccc4)[nH]3)c2)CC1)[C@@H]1CCCN1C(=O)[C@H](NC(=O)N1CCOCC1)c1ccccc1 [compound 364]	8.00 to 9.00
O=C(N[C@H]1CC[C@@H](c2cccc(-c3cnc([C@@H]4CCCN4C(=O)[C@H](NC(=O)N4CCOCC4)c4ccccc4)[nH]3)c2)CC1)[C@@H]1CCCN1C(=O)[C@H](NC(=O)N1CCOCC1)c1ccccc1 [compound 365]	8.00 to 9.00
CC(C)[C@@H](NC(=O)OC(C)(C)C)C(=O)N1CCC[C@H]1c1ncc(-c2ccc(C3CCC(c4cnc([C@@H]5CCCN5C(=O)[C@H](NC(=O)OC(C)(C)C)C(C)C)[nH]4)CC3)cc2)[nH]1 (stereo partly shown) [compound 366]	6.00 to 8.00
CC(C)(C)OC(=O)N[C@@H](C(=O)N1CCC[C@H]1c1ncc(-c2ccc(C3CCC(c4cnc([C@@H]5CCCN5C(=O)[C@H](NC(=O)OC(C)(C)C)c5ccccc5)[nH]4)CC3)cc2)[nH]1)c1ccccc1 (stereo partly shown) [compound 367]	> 9.00

SMILES	pEC50
CC(C)(C)OC(=O)N[C@@H](C(=O)N1CCC[C@H]1C(=O)NC1CCC(c2ccc(-c3cnc([C@@H]4COCCN4C(=O)[C@H](NC(=O)OC(C)(C)C)c4ccccc4)[nH]3)cc2)CC1)c1ccccc1 (stereo partly shown) [compound 368]	> 9.00
COC(=O)N[C@@H](C(=O)N1CCC[C@H]1c1ncc(-c2ccc([C@H]3CC[C@H](NC(=O)[C@@H]4CCCN4C(=O)[C@H](NC(=O)N4CCOCC4)c4ccccc4)CC3)cc2)[nH]1)c1ccccc1 [compound 369]	8.00 to 9.00
COC(=O)N[C@@H](C(=O)N1CCC[C@H]1c1ncc(-c2ccc([C@H]3CC[C@@H](NC(=O)[C@@H]4CCCN4C(=O)[C@H](NC(=O)N4CCOCC4)c4ccccc4)CC3)cc2)[nH]1)c1ccccc1 [compound 370]	8.00 to 9.00
O=C(N[C@@H](C(=O)N1CCC[C@H]1c1ncc(-c2ccc(C3CCC(c4cnc([C@@H]5CCCN5C(=O)[C@H](NC(=O)C5CC5)c5ccccc5)[nH]4)CC3)cc2)[nH]1)c1ccccc1)C1CC1 (stereo partly shown) [compound 371]	> 9.00
O=C(NC1CCC(c2ccc(-c3cnc([C@@H]4COCCN4C(=O)C(NC(=O)N4CCOCC4)c4ccccc4)[nH]3)cc2)CC1)[C@@H]1CCCN1C(=O)C(NC(=O)N1CCOCC1)c1ccccc1 (stereo partly shown) [compound 372]	8.00 to 9.00
COC(=O)N[C@@H](C(=O)N1CCC[C@H]1c1ncc(-c2ccc(C3CCC(c4cnc([C@@H]5CCCN5C(=O)[C@H](NC(=O)OC)c5ccccc5)[nH]4)CC3)cc2)[nH]1)c1ccccc1 (stereo partly shown) [compound 373]	> 9.00
COC(=O)N[C@H](C(=O)N1CCC[C@H]1c1ncc(-c2ccc(C3CCC(c4cnc([C@@H]5CCCN5C(=O)[C@@H](NC(=O)OC)c5ccccc5)[nH]4)CC3)cc2)[nH]1)c1ccccc1 (stereo partly shown) [compound 374]	> 9.00
COC(=O)N[C@H](Cc1ccccc1)C(=O)N1CCC[C@H]1c1ncc(C2CCC(c3ccc(-c4cnc([C@@H]5CCCN5C(=O)[C@@H](c5ccccc5)N5CCCC5)[nH]4)cc3)CC2)[nH]1 (stereo partly shown) [compound 375]	> 9.00
COC(=O)N[C@@H](C(=O)N1CCC[C@H]1c1ncc(-c2ccc(C3CCC(c4cnc([C@@H]5CCCN5C(=O)[C@@H](c5ccccc5)N(C)C)[nH]4)CC3)cc2)[nH]1)c1ccccc1 (stereo partly shown) [compound 376]	> 9.00
COC(=O)N[C@@H](C(=O)N1CCC[C@H]1c1ncc(C2CCC(c3ccc(-c4cnc([C@@H]5CCCN5C(=O)[C@@H](c5ccccc5)N(C)C)[nH]4)cc3)CC2)[nH]1)c1ccccc1 (stereo partly shown) [compound 377]	> 9.00
COC(=O)N[C@@H](C(=O)N1CCC[C@H]1c1ncc(C2CCC(c3ccc(-c4cnc([C@@H]5CCCN5C(=O)[C@@H](c5ccccc5)N5CCOCC5)[nH]4)cc3)CC2)[nH]1)c1ccccc1 (stereo partly shown) [compound 378]	> 9.00
COC(=O)N[C@@H](C(=O)N1CCC[C@H]1c1ncc(C2CCC(c3ccc(-c4cnc([C@@H]5CCCN5C(=O)[C@@H](c5ccccc5)N5CCCC5)[nH]4)cc3)CC2)[nH]1)c1ccccc1 (stereo partly shown) [compound 379]	> 9.00
CN(C)[C@@H](C(=O)N1CCC[C@H]1c1ncc(C2CCC(c3ccc(-c4cnc([C@@H]5CCCN5C(=O)[C@H](NC(=O)C5CC5)c5ccccc5)[nH]4)cc3)CC2)[nH]1)c1ccccc1 (stereo partly shown) [compound 380]	> 9.00
COC(=O)N[C@H](C(=O)N1CCC[C@H]1c1ncc(-c2ccc([C@H]3CC[C@H](c4cnc([C@@H]5CCCN5C(=O)[C@@H](NC(=O)OC)C(C)C)[nH]4)CC3)cc2)[nH]1)C(C)C [compound 381]	> 9.00
COC(=O)N[C@H](C(=O)N1CCC[C@H]1c1ncc(-c2ccc([C@H]3CC[C@@H](c4cnc([C@@H]5CCCN5C(=O)[C@@H](NC(=O)OC)C(C)C)[nH]4)CC3)cc2)[nH]1)C(C)C [compound 382]	> 9.00
CC(C)[C@H](NC(=O)OC(C)(C)C)C(=O)N1CCC[C@H]1c1ncc(-c2ccc([C@H]3CC[C@H](c4cnc([C@@H]5CCCN5C(=O)[C@@H](NC(=O)OC(C)(C)C)C(C)C)[nH]4)CC3)cc2)[nH]1 [compound 383]	6.00 to 8.00
CC(C)[C@H](NC(=O)OC(C)(C)C)C(=O)N1CCC[C@H]1c1ncc(-c2ccc([C@H]3CC[C@@H](c4cnc([C@@H]5CCCN5C(=O)[C@@H](NC(=O)OC(C)(C)C)C(C)C)[nH]4)CC3)cc2)[nH]1 [compound 384]	6.00 to 8.00

same assay, conditions: Hepatitis C virus, Huh-7, 72 h, read-out: Inhibition of HCV genotype 1b, Table 6, 72 h incubation

SMILES	pEC50
COC(=O)N[C@H](C(=O)N1CCC[C@H]1c1nc2ccc(-c3ccc4nc([C@@H]5CCCN5C(=O)[C@@H](NC(=O)OC)C(C)C)[nH]c4c3)cc2[nH]1)C(C)C [Compound 850]	> 9.00

same assay, conditions: Hepatitis C virus, Huh-7, 72 h, read-out: Inhibition of HCV genotype 1b, Table 9, 72 h incubation

SMILES	pEC50
COC(=O)N[C@@H](C(=O)N1CCC[C@H]1c1nc(-c2ccc(/C=C/c3ccc(-c4cnc([C@@H]5CCCN5C(=O)[C@H](NC(=O)OC)c5ccccc5)[nH]4)cc3)cc2)c[nH]1)c1ccccc1 [Compound 2120]	> 9.00
